These results are taken from patent US12559506B2, “Indazole based compounds and associated methods of use” (Arvinas Operations, Inc., priority 2021, dated 2026).

Read-outs that look alike come from different tables or passages of the source. Bounds are passed on as bounds.

This experiment has as its target T1, LRRK2 (endogenous, HiBit tagged) (Homo sapiens, UniProt Q5S007).
T1 construct: endogenous in cells; host or cells: HEK293 cells with HiBit knock-in at the endogenous LRRK2 locus, stably expressing firefly luciferase
The experiment is described as follows: Endogenous LRRK2 degradation assay, endogenous gene C-terminally HiBit-tagged in HEK293 cells (Nano-Glo Dual Luciferase). In kind it is cell-based. An outline of the steps:
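LRRK2-HiBit quantified via Nano-Glo Dual Luciferase in HEK293 knock-in cells co-expressing firefly luciferase, after 24 h exposure to compound (1 μM final top, 1:3, 11 points). Values normalised to DMSO median per plate and curve-fitted; Alamar Blue viability run alongside.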
In general terms: HiBiT is a short tag that completes a luciferase, so light tracks the accessible tagged protein.

The mark [1] stands for this setting: endogenous HiBit-tagged LRRK2 in HEK293 cells, 24 hours treatment, read-out: **Endogenous WT Dmax (%).
[2] abbreviates: endogenous HiBit-tagged LRRK2 in HEK293 cells, 24 hours treatment, read-out: *Endogenous WT DC50.
Where [3] appears, read: endogenous HiBit-tagged LRRK2 in HEK293 cells, 24 hours treatment, read-out: Endogenous WT DC50.
The mark [4] stands for this setting: endogenous HiBit-tagged LRRK2 in HEK293 cells, 24 hours treatment, read-out: Endogenous WT Dmax.
The mark [5] stands for this setting: endogenous HiBit-tagged LRRK2, HEK293 cells, 24 hours, read-out: **Endogenous WT Dmax (%).
Setting [6] is: endogenous HiBit-tagged LRRK2, HEK293 cells, 24 hours, read-out: *Endogenous WT DC50.

T1 sequence (Q5S007 whole entry): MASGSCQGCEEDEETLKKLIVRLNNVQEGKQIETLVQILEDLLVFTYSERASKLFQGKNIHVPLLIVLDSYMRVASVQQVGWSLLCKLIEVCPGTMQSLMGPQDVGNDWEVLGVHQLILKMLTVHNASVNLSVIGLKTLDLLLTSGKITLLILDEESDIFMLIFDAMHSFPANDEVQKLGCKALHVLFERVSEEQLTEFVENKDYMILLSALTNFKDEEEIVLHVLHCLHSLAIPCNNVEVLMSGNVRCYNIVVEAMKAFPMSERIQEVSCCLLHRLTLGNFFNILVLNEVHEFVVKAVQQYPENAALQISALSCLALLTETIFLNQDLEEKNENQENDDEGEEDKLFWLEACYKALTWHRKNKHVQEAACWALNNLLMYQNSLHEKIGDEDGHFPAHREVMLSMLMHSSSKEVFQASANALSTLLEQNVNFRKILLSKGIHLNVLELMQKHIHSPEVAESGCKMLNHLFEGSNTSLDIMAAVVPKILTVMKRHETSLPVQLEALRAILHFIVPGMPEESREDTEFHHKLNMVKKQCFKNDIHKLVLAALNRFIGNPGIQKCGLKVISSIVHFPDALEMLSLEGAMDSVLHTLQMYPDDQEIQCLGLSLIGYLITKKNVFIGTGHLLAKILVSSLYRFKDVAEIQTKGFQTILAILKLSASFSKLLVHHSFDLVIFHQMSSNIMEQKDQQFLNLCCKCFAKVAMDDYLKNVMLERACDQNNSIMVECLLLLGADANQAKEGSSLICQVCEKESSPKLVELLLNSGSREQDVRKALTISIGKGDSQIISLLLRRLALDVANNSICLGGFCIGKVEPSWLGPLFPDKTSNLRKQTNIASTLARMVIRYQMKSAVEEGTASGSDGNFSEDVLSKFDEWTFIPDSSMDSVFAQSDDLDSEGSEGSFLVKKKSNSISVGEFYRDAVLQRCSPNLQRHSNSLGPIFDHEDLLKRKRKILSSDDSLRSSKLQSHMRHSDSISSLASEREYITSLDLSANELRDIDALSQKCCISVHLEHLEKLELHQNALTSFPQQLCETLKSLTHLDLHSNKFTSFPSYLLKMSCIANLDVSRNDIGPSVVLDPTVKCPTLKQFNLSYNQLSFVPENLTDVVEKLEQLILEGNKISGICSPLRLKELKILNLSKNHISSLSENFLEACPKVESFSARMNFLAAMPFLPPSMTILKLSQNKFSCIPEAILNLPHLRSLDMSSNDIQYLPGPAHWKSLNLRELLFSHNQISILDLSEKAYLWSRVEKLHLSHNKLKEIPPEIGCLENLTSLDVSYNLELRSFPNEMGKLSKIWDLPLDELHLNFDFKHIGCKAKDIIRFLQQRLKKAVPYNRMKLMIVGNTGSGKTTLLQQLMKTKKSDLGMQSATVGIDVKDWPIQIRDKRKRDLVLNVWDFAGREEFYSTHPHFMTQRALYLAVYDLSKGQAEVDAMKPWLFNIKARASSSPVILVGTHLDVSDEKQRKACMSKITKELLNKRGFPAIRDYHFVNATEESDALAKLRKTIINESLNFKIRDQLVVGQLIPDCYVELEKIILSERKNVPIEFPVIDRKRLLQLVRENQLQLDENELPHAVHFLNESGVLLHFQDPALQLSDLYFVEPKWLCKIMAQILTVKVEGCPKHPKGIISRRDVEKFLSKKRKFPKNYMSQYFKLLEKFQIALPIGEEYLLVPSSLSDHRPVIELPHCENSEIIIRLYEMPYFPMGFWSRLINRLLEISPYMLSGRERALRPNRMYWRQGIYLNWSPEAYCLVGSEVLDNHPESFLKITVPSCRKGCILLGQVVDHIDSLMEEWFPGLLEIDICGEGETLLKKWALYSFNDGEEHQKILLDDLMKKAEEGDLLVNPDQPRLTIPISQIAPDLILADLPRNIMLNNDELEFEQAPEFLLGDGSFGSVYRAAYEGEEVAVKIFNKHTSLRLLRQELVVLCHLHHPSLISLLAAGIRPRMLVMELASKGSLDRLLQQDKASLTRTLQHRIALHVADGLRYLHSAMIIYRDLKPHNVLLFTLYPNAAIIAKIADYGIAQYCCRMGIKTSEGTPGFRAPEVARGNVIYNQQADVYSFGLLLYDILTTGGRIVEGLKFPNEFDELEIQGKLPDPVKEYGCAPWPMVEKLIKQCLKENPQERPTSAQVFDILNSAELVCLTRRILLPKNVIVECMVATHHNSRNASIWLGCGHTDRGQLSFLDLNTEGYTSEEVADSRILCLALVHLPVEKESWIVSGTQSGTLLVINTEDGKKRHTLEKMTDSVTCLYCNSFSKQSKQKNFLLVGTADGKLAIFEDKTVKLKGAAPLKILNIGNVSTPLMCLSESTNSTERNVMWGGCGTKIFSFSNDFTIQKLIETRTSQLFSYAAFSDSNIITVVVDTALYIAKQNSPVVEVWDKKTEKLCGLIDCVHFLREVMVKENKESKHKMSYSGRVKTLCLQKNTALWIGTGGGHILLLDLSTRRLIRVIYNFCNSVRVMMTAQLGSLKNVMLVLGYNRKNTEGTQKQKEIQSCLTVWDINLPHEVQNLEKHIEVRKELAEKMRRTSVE

For `CC1(Oc2ccc3[nH]nc(-c4cc(N5CC[C@H](CN6CCN(CC7CCN(c8ccc9c(c8F)CN(C8CCC(=O)NC8=O)C9=O)CC7)CC6)C5)ncn4)c3c2)CC1` (stereo partly drawn) [Compound 295, 3-(4-fluoro-5-{4-[(4-{[(3R)-1-{6-[5-(1-methylcyclopropoxy)-1H-indazol-3-yl]pyrimidin-4-yl}pyrrolidin-3-yl]methyl}piperazin-1-yl)methyl]piperidin-1-yl}-1-oxo-2,3-dihydro-1H-isoindol-2-yl)piperidine-2,6-dione], the greatest degradation seen (Dmax) (in general, the greatest extent of degradation seen) under setting [1] was in the range of 50 to 70%. The DC50 (commonly the midpoint of the concentration-degradation curve) under setting [2] was < 10 nM.

For the molecule `CC1(Oc2ccc3[nH]nc(-c4cc(N5CCC(CN6CCN(CC7CCN(c8ccc9c(c8)C(=O)N(C8CCC(=O)NC8=O)C9)CC7)CC6)CC5)ncn4)c3c2)CC1` (stereo not shown) [Compound 241, 3-[6-[4-[[4-[[1-[6-[5-(1-methylcyclopropoxy)-1H-indazol-3-yl]pyrimidin-4-yl]-4-piperidyl]methyl]piperazin-1-yl]methyl]-1-piperidyl]-1-oxo-isoindolin-2-yl]piperidine-2,6-dione], the 50% degradation concentration (DC50) under setting [3] is < 10 nM. The Dmax under setting [4] is 50 to 70%.

In the case of `CC1(Oc2ccc3[nH]nc(-c4cc(N5CCC(O[C@H]6CCN(CC7CCN(c8ccc9c(c8F)CN(C8CCC(=O)NC8=O)C9=O)CC7)C(C)(C)C6)CC5)ncn4)c3c2)CC1` (stereo partly drawn) [Compound 308, 3-(5-(4-(((S)-2,2-dimethyl-4-((1-(6-(5-(1-methylcyclopropoxy)-1H-indazol-3-yl)pyrimidin-4-yl)piperidin-4-yl)oxy)piperidin-1-yl)methyl)piperidin-1-yl)-4-fluoro-1-oxoisoindolin-2-yl)piperidine-2,6-dione], the Dmax under setting [1] lay in the range of 50 to 70%. For the same molecule, the DC50 under setting [2] is < 10 nM.

Take `CC1(Oc2ccc3n[nH]c(-c4cc(N5CCC(O[C@H]6C[C@H](N7CC[C@@H](c8ccc9c(c8)CN(C8CCC(=O)NC8=O)C9=O)[C@@H](F)C7)C6)CC5)ncn4)c3c2)CC1` (stereo partly shown) [Compound 342, 3-{5-[(3r,4s)-3-fluoro-1-[(1r,3r)-3-[(1-{6-[5-(1-methylcyclopropoxy)-2H-indazol-3-yl]pyrimidin-4-yl}piperidin-4-yl)oxy]cyclobutyl]piperidin-4-yl]-1-oxo-2,3-dihydro-1H-isoindol-2-yl}piperidine-2,6-dione]: under setting [1], the maximal degradation (Dmax) is 50 to 70%. For the same molecule, under setting [2], the DC50 is < 10 nM.

On to `COc1c(N2CCC(O[C@H]3CC[C@H](CN4CCN(c5cc(-c6[nH]nc7ccc(OC8(C)CC8)cc67)ncn5)CC4)CC3)CC2)ccc2c1CN(C1CCC(=O)NC1=O)C2=O` (stereo partly shown) [Compound 238, 3-[4-methoxy-1-oxo-5-(4-{[(1r,4r)-4-[(4-{6-[5-(1-methylcyclopropoxy)-2H-indazol-3-yl]pyrimidin-4-yl}piperazin-1-yl)methyl]cyclohexyl]oxy}piperidin-1-yl)-2,3-dihydro-1H-isoindol-2-yl]piperidine-2,6-dione], for which the DC50 under setting [3] was < 10 nM. Besides, the Dmax under setting [4] was 50 to 70%.

With `COc1c(N2CCC(O[C@H]3CC[C@H](CN4CCN(c5cc(-c6n[nH]c7cc(F)c(OC8(C)CC8)cc67)ncn5)CC4)CC3)CC2)ccc2c1CN(C1CCC(=O)NC1=O)C2=O` (stereo partly shown) [Compound 360, 3-[4-methoxy-1-oxo-5-(4-{[(1r,4r)-4-[(4-{6-[6-fluoro-5-(1-methylcyclopropoxy)-1H-indazol-3-yl]pyrimidin-4-yl}piperazin-1-yl)methyl]cyclohexyl]oxy}piperidin-1-yl)-2,3-dihydro-1H-isoindol-2-yl]piperidine-2,6-dione], the DC50 under setting [3] was < 10 nM. Also, the Dmax under setting [4] was 50 to 70%.

As to `COc1c(N2CCC(CN3CCN(CC4CCN(c5cc(-c6n[nH]c7ccc(OC8(C)CC8)cc67)ncn5)CC4)[C@H](C)C3)CC2)ccc2c1CN(C1CCC(=O)NC1=O)C2=O` (stereo partly drawn) [Compound 255, 3-[4-methoxy-5-(4-{[(3R)-3-methyl-4-[(1-{6-[5-(1-methylcyclopropoxy)-1H-indazol-3-yl]pyrimidin-4-yl}piperidin-4-yl)methyl]piperazin-1-yl]methyl}piperidin-1-yl)-1-oxo-2,3-dihydro-1H-isoindol-2-yl]piperidine-2,6-dione], under setting [3], the DC50 was < 10 nM. Further, the maximal degradation (Dmax) under setting [4] fell in the range of 50 to 70%.

As to `CC1(Oc2cc3c(-c4cc(N5CCC(O[C@H]6CC[C@H](OC7CCN(c8ccc9c(c8F)CN(C8CCC(=O)NC8=O)C9=O)CC7)CC6)CC5)ncn4)n[nH]c3cc2F)CC1` (stereo partly shown) [Compound 227, 3-[4-fluoro-1-oxo-5-(4-{[(1r,4r)-4-[(1-{6-[6-fluoro-5-(1-methylcyclopropoxy)-1H-indazol-3-yl]pyrimidin-4-yl}piperidin-4-yl)oxy]cyclohexyl]oxy}piperidin-1-yl)-2,3-dihydro-1H-isoindol-2-yl]piperidine-2,6-dione], the DC50 under setting [3] is < 10 nM. The Dmax under setting [4] lay within 50 to 70%.

`CC1(Oc2cc3c(-c4cc(N5CCC(CN6CCN(CC7CCN(c8ccc9c(c8)C(=O)N(C8CCC(=O)NC8=O)C9=O)CC7)CC6)CC5)ncn4)n[nH]c3cn2)CC1` (stereo not shown) [Compound 178, 2-(2,6-dioxo-3-piperidyl)-5-[4-[[4-[[1-[6-[5-(1-methylcyclopropoxy)-1H-pyrazolo[3,4-c]pyridin-3-yl]pyrimidin-4-yl]-4-piperidyl]methyl]piperazin-1-yl]methyl]-1-piperidyl]isoindoline-1,3-dione]: under setting [5], the maximal degradation (Dmax) was ≥ 70%. The DC50 under setting [6] is < 10 nM.

For the molecule `CC1(Oc2ccc3[nH]nc(-c4cc(N5CCN(CC6(F)CCN(CC7CCN(c8cccc9c8CN(C8CCC(=O)NC8=O)C9=O)CC7)CC6)CC5)ncn4)c3c2)CC1` (stereo not shown) [Compound 179, 3-[4-[4-[[4-fluoro-4-[[4-[6-[5-(1-methylcyclopropoxy)-2H-indazol-3-yl]pyrimidin-4-yl]piperazin-1-yl]methyl]-1-piperidyl]methyl]-1-piperidyl]-1-oxo-isoindolin-2-yl]piperidine-2,6-dione], under setting [5], the Dmax was 50 to 70%. Also, under setting [6], the DC50 was < 10 nM.

For the molecule `CC1(Oc2ccc3n[nH]c(-c4cc(N5CCC(CO[C@H]6C[C@H](N7CCC(c8ccc9c(c8F)CN(C8CCC(=O)NC8=O)C9=O)CC7)C6)CC5)ncn4)c3c2)CC1` (stereo partly shown) [Compound 292, 3-(4-fluoro-1-oxo-5-{1-[(1r,3r)-3-[(1-{6-[5-(1-methylcyclopropoxy)-2H-indazol-3-yl]pyrimidin-4-yl}piperidin-4-yl)methoxy]cyclobutyl]piperidin-4-yl}-2,3-dihydro-1H-isoindol-2-yl)piperidine-2,6-dione], the Dmax under setting [1] was 50 to 70%. Further, the 50% degradation concentration (DC50) under setting [2] was < 10 nM.

For `CC1(Oc2ccc3n[nH]c(-c4cc(N5CCC(COC6CCN(C(=O)C7CCN(c8ccc9c(c8)C(=O)N(C8CCC(=O)NC8=O)C9=O)CC7)CC6)CC5)ncn4)c3c2)CC1` (stereo not shown) [Compound 62, 2-(2,6-dioxo-3-piperidyl)-5-[4-[4-[[1-[6-[5-(1-methylcyclopropoxy)-2H-indazol-3-yl]pyrimidin-4-yl]-4-piperidyl]methoxy]piperidine-1-carbonyl]-1-piperidyl]isoindoline-1,3-dione], the Dmax (endogenous HiBit-tagged LRRK2 in HEK293 cells, 24 hours, read-out: **Endogenous WT Dmax (%)) is ≥ 70%. Also, the DC50 (endogenous HiBit-tagged LRRK2 in HEK293 cells, 24 hours, read-out: *Endogenous WT DC50) is < 10 nM.

For `CC1(Oc2ccc3n[nH]c(-c4cc(N5CCC6(CC5)CN([C@H]5C[C@H](OC7CCN(c8ccc9c(c8F)CN(C8CCC(=O)NC8=O)C9=O)CC7)C5)C6)ncn4)c3c2)CC1` (stereo partly shown) [Compound 326, 3-(4-fluoro-1-oxo-5-{4-[(1r,3r)-3-(7-{6-[5-(1-methylcyclopropoxy)-2H-indazol-3-yl]pyrimidin-4-yl}-2,7-diazaspiro[3.5]nonan-2-yl)cyclobutoxy]piperidin-1-yl}-2,3-dihydro-1H-isoindol-2-yl)piperidine-2,6-dione], the Dmax under setting [1] lay within 50 to 70%. In addition, the 50% degradation concentration (DC50) under setting [2] is < 10 nM.

Turning to `CC1(Oc2ccc3[nH]nc(-c4cc(N5CCN(C[C@@H]6CC[C@@H](CN7CCN(c8ccc9c(c8F)CN(C8CCC(=O)NC8=O)C9=O)CC7)OC6)CC5)ncn4)c3c2)CC1` (single isomer, unassigned) [Compound 305], under setting [1], the maximal degradation (Dmax) lay within 50 to 70%. For the same molecule, under setting [2], the DC50 was < 10 nM.

Turning to `CC1(Oc2ccc3[nH]nc(-c4cc(N5CCC(CN6CCN(CC7CCN(c8ccc9c(c8Cl)CN(C8CCC(=O)NC8=O)C9=O)CC7)CC6)CC5)ncn4)c3c2)CC1` (stereo not shown) [Compound 239, 3-[4-chloro-5-[4-[[4-[[1-[6-[5-(1-methylcyclopropoxy)-1H-indazol-3-yl]pyrimidin-4-yl]-4-piperidyl]methyl]piperazin-1-yl]methyl]-1-piperidyl]-1-oxo-isoindolin-2-yl]piperidine-2,6-dione], under setting [3], the DC50 is < 10 nM. In addition, the Dmax under setting [4] is ≥ 70%.

Consider `CC1(Oc2ccc3n[nH]c(-c4cc(N5CCC(O[C@H]6CC[C@H](OC7CCN(c8ccc9c(c8F)CN(C8CCC(=O)NC8=O)C9=O)CC7)CC6)CC5)ncn4)c3c2)CC1` (stereo partly shown) [Compound 228, 3-[4-fluoro-5-[4-[4-[[1-[6-[5-(1-methylcyclopropoxy)-2H-indazol-3-yl]pyrimidin-4-yl]-4-piperidyl]oxy]cyclohexoxy]-1-piperidyl]-1-oxo-isoindolin-2-yl]piperidine-2,6-dione], for which, under setting [3], the DC50 is 10 to 50 nM. Further, the Dmax under setting [4] lay in the range of 50 to 70%.

As for `CC1(Oc2ccc3n[nH]c(-c4cc(N5CCN(C[C@H]6CO[C@H](CN7CCN(c8ccc9c(c8F)CN(C8CCC(=O)NC8=O)C9=O)CC7)CO6)CC5)ncn4)c3c2)CC1` (stereo partly shown) [Compound 296, 3-[4-fluoro-5-(4-{[(2r,5s)-5-[(4-{6-[5-(1-methylcyclopropoxy)-2H-indazol-3-yl]pyrimidin-4-yl}piperazin-1-yl)methyl]-1,4-dioxan-2-yl]methyl}piperazin-1-yl)-1-oxo-2,3-dihydro-1H-isoindol-2-yl]piperidine-2,6-dione], the greatest degradation seen (Dmax) under setting [1] lay in the range of 50 to 70%. The DC50 under setting [2] was < 10 nM.
